Here are results for four molecules from US20260240903A1, “USE OF TRIVALENT CHROMIUM IONS AND/OR METAL CHROMIUM IN PREPARATION OF DRUG FOR IMMUNOTHERAPY OF TUMORS” (SHENZHEN LUOHU PEOPLE'S HOSPITAL, priority 2023, published 2026).

For series [1], the system named is subcutaneous melanoma (B16F10 cells). The series can be described thus: Growth of subcutaneous melanoma in B16F10 tumor-bearing mice. The series is classed as in vivo. The settings on record: B16F10 tumor-bearing C57BL/6 mice, vein injection twice at 4-day interval; BMS-202 0.1 mg/mouse, Cr^3+ 100 μg/mL 100 μL, 12 days. The source says: A batch of SPF C57BL/6 mice (6 weeks old) were purchased from a company. B16F10 cells were selected as subcutaneous tumor model cells. 5×10^5 B16F10 cells were inoculated on a right side of a dorsal flank of each mouse and cultured for 13 days. When tumor volumes reached 100-200 mm^3, the modeling was successful. The obtained tumor-bearing mice can be used for a subsequent in vivo experiment. Animal experiments all comply with requirements for animal protection ethics and welfare.
The successfully constructed B16 tumor-bearing mice were divided into four groups: a CrCl3 experimental group (amount of chromium ions: 100 μg/mL, 100 μL), a BMS experimental group (0.1 mg/mouse), a CrCl3+BMS experimental group (100 μg/mL, 100 μL CrCl3+0.1 mg BMS/mouse) and a control group (normal saline, 100 μL) (n=3 for each group). On the first day, CrCl3, BMS and CrCl3+BMS were injected into veins of mice in different groups, respectively. […] Tumor growth was monitored every two days by a digital caliper with a tumor volume calculation formula of ½×L×W^2. On the 12th day of treatment, the mice were euthanatized.

Series [2] concerns MIP-1α secretion in RAW264.7 cells. The series can be described thus: ELISA of MIP-1α secretion in RAW264.7 cells. The series is classed as cell-based, mouse. Particulars: Cr^3+ 0, 50, 100, 200 μg/mL, 48 h. As to the method:
(§1) Cr^3+ with different concentrations (0 μg/mL, 50 μg/mL, 100 μg/mL and 200 μg/mL) was co-incubated with RAW264.7 cells (1×10^6 cells/well) for 48 h. Cell supernatants and protein samples were collected, and various types of […] including MIP-la were detected through ELISA. The expression of various proteins in a PI3K/Akt/mTOR pathway was detected through protein immunoblotting.
Background: In an ELISA, binding on a coated surface is turned into a signal by an enzyme label.

Another series relates to PI3K/AKT/mTOR pathway. The series can be described thus: Protein immunoblotting of the PI3K/Akt/mTOR pathway in RAW264.7 cells. The class given is cell-based, mouse. As to the method: as §1
A general note: Immunoblotting shows a protein as a band on a membrane.

Another series concerns RAW264.7 cells. The series can be described thus: CCK-8 assay of toxicity of metal ions. Particulars: 0-200 μg/mL metal ions, 24 h. The class given is cell-based, mouse. As to the method:
Toxicities of metal ions with different concentrations on RAW264.7 cells were quantified through a CCK-8 assay. Specific steps are as follows: RAW264.7 cells (2×10^4 cells/well, n=4) were inoculated in a 96-well plate, stayed for a whole night and cultured by media containing metal ions with different concentrations (0 μg/mL, 25 μg/mL, 50 μg/mL, 100 μg/mL and 200 μg/mL) for 24 h, respectively, and cell viability was measured through CCK-8.
For orientation: Formazan colour is commonly taken as a measure of viable cells.

The next series deals with macrophages (RAW264.7). The series can be described thus: Transwell detection of the promotion of macrophage migration by metal ions. The class given is cell-based, mouse. The settings on record: for ability to promote the migration of macrophages: liver cancer cells in lower chamber, metal ions 0, 500, 1000, 2000 μM, RAW264.7 in upper chamber. The source says:
This example provides the establishment and validation of a platform for screening metal ions that promotes the migration of immune cells. A specific method is described below. • 1. Preparation of metal ions: metal compounds such as zinc chloride, potassium chloride, magnesium chloride, manganese chloride, anhydrous calcium chloride, aluminium sulfate (octadecahydrate), anhydrous copper(II) chloride, anhydrous iron(III) chloride, iron(II) chloride, chromium(III) chloride hexahydrate and anhydrous cobalt(II) chloride were prepared into solutions ranging from 0 μM to 2000 μM using normal saline, respectively. • 2. Preparation of BM-DCs (bone marrow-derived dendritic cells), RAW264.7 (mouse monocytic leukemia macrophage cells) and mouse spleen lymphocytes • (1) Acquisition of mouse BM-DCs: bone marrow was taken from hind limbs of […] mice, and treated with a red blood cell lysis buffer to remove red blood cells; bone marrow cells (4×10^6 cells) were cultured in a 10 cm culture dish, and 10% FBS, mercaptoethanol (2-ME, 0.8 ng/ml, Sigma) and mouse granulocyte-macrophage colony-stimulating factor (GM-CSF, 20 ng/mL, PeproTech) were added to a DMEM medium and cultured for 7 days; expression levels of CD11c, CD80 and CD86 in cells were detected using antibodies and a flow cytometer. • (2) Mouse macrophages RAW264.7: derived from a cell bank of the Chinese Academy of Sciences and cultured. • (3) Mouse spleen lymphocytes: spleens of C57BL/6 mice were acquired and filtered by a screen into single cells, treated with a red blood cell lysis buffer to remove red blood cells, and centrifuged with lymphocyte isolation solution to isolate the cells for in vitro culture. • 3. Transwell detection of the promotion of the migration of immune cells by metal ions
Liver cancer cells were placed in lower chambers (12 wells) of a Transwell plate, and the above metal ion solutions with different concentrations (0 μM, 500 μM, 1000 μM and 2000 μM) were added to the lower chambers, respectively. After 24 h, the BM-DCs, the RAW264.7 cells and the spleen lymphocytes were placed in upper chambers (2×10^4 cells/well) of the Transwell plate, respectively. The cells were co-cultured for a certain period of time, and nylon membranes of the chambers were taken and stained to observe the migration of the cells.

The next series deals with IR tyrosine kinases (Homo sapiens, UniProt P06213). The settings on record: background statement; cited from earlier work.
Chain of IR tyrosine kinases (P06213 28-1382): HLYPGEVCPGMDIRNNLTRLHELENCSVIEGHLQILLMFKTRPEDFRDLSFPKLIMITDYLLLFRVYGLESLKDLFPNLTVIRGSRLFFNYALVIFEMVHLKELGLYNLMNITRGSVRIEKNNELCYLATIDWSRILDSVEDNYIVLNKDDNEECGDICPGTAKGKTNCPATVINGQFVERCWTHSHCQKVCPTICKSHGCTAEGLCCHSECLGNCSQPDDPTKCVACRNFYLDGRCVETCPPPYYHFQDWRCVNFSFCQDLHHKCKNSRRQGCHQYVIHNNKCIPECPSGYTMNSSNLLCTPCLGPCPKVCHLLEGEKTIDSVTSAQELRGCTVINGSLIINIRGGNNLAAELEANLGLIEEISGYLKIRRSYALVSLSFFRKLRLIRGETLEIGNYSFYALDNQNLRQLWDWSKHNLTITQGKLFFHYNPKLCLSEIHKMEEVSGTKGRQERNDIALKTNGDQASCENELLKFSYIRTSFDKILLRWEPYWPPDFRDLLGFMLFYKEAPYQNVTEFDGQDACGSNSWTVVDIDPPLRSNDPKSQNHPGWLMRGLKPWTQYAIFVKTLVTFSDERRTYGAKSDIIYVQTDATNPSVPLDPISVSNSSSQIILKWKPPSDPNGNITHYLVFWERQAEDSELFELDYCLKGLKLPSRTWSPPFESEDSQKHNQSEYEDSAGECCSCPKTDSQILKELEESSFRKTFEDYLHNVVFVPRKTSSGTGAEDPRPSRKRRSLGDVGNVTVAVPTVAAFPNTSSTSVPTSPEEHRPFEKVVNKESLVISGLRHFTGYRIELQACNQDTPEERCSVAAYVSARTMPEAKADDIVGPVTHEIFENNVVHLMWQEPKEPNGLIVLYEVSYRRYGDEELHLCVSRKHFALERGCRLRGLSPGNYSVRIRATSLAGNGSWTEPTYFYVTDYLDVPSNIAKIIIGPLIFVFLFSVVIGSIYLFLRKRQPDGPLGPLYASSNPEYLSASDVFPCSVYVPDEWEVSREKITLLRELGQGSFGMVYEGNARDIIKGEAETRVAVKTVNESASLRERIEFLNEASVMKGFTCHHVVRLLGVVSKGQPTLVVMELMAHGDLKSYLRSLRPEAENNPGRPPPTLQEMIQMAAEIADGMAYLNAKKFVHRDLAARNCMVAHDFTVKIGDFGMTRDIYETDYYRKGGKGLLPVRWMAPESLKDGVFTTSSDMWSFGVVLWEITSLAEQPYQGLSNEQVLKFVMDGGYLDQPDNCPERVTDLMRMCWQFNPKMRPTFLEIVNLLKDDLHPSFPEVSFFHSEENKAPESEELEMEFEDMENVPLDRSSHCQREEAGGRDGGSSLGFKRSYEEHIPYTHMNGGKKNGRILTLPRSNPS
A short description of series [3]: Stability of metal ions in vitro and in vivo. The series is classed as physicochemical.

Take `COc1nc(OCc2cccc(-c3ccccc3)c2C)ccc1CNCCNC(C)=O` [BMS-202, reference compound]: the “effect on tumor growth of subcutaneous melanoma” value in series [1] is reported as “no significant limiting effect on the tumor growth”.

As for `O.O.O.O.O.O.[Cl][Cr]([Cl])[Cl]` [Cr^3+, chromium(III) chloride hexahydrate], the “secretion of MIP-1α” value in series [2] is given as “significantly increased”. The “activation of the PI3K/AKT/mTOR pathway” value with PI3K/AKT/mTOR pathway is recorded as “can activate the PI3K/AKT/mTOR pathway”. For the same molecule, the “expression of AKT and phosphorylated AKT (pAKT)” value in the series with PI3K/AKT/mTOR pathway (48 h) is “induces high expression”. Also, the “toxicity on RAW264.7 cells (cell viability, CCK-8)” value in the series with RAW264.7 cells is “good biocompatibility (low biological toxicity)”. In the series on macrophages (RAW264.7) (Cr^3+ between 0 μM and 2000 μM), the “migration promoting effect on macrophages” value was “significant migration promoting effect”. Further, the “ability to promote the migration of macrophages” value (from here on “ability to promote the migration”) in the series on macrophages (RAW264.7) was “have an ability to promote the migration of macrophages”. Also, the “effect on tumor growth of subcutaneous melanoma” value in series [1] was “no significant limiting effect on the tumor growth”. The “enhancement of the activity of IR tyrosine kinases” value at IR tyrosine kinases was “six times”.

Take `[Cl][Cu][Cl]` [Cu^2+, anhydrous copper(II) chloride, reference compound]: the “toxicity on RAW264.7 cells (cell viability, CCK-8)” value in the series on RAW264.7 cells was “relatively high cytotoxicity”. Moreover, the “ability to promote the migration” value in the series on macrophages (RAW264.7) is on record as “have an ability to promote the migration of macrophages”.

With `[Cl][Fe][Cl]` [Fe^2+, iron(II) chloride, reference compound], the “stability in vitro and in vivo” value in series [3] is “poor stability in vitro and in vivo and is easily oxidized to Fe^3+”. Moreover, the “ability to promote the migration” value in the series with macrophages (RAW264.7) is “have an ability to promote the migration of macrophages”.
